From paper PMC11513854, “De novo GTP synthesis is a metabolic vulnerability for the interception of brain metastases” (Cell Reports Medicine, 2024)

What was measured:
[1] = system: patient-derived lung-BMIC line (BT478); test: Preliminary drug screen of CMap compounds, PrestoBlue viability; format: cell-based, human; conditions: 10 μM, 72 h, PrestoBlue readout
Source text: In this work, we aimed to identify potential druggable targets for BM, by characterizing the transcriptomes of pre-metastatic lung-, breast-, and melanoma-BMICs (see Figure 1A).[13]^,[14] We identified 3,951 genes that are commonly differentially expressed in the pre-metastatic cohort of cells compared to BMICs isolated from established patient tumors (Figure 1C).[14] We input the shared gene signature of pre-metastatic BMICs (defined by the commonly shared gene signature from BMICs of all three primary tumor cohorts) as a query signature for computational CMap[17] analysis to identify compounds that evoke opposing transcriptional changes (see Figure 1A). […]
For preliminary drug screening, drugs were plated at a concentration of 10 μM in a 96-well plate, in triplicate at a density of 1000 cells/well, and incubated at 37°C with a humidified atmosphere of 5% CO2 for three days. […] Following treatment, PrestoBlue (20 μL, Invitrogen), a resazurin-based cell viability reagent and fluorescence indicator of cell metabolism, was added to each well to estimate proliferation approximately 2 h prior to measuring fluorescence intensity via FLUOstar Omega Fluorescence 556 Microplate reader (BMG LABTECH) at an excitation and emission wavelength of 540 nm and 590 nm, respectively. Results were analyzed using Omega analysis software.

lung-BMIC line (BT478) = test: Dose-response assay, PrestoBlue; format: cell-based, human; conditions: Homo sapiens; BT478, 72-h treatment, PrestoBlue; N/A, not applicable; read-out: Lung-BM IC50
Protocol: For preliminary drug screening, drugs were plated at a concentration of 10 μM in a 96-well plate, in triplicate at a density of 1000 cells/well, and incubated at 37°C with a humidified atmosphere of 5% CO2 for three days. Vehicle controls for cell death are used in each functional experiment. Following treatment, PrestoBlue (20 μL, Invitrogen), a resazurin-based cell viability reagent and fluorescence indicator of cell metabolism, was added to each well to estimate proliferation approximately 2 h prior to measuring fluorescence intensity via FLUOstar Omega Fluorescence 556 Microplate reader (BMG LABTECH) at an excitation and emission wavelength of 540 nm and 590 nm, respectively. Results were analyzed using Omega analysis software.
(§1) Dose-response assays were conducted using the same protocol apart from drugs being plated using 2-fold serial dilutions (20 μM - 39 nM) as previously described.[66] The half maximal inhibitory concentration (IC50) is determined by plotting percent cell viability by the logarithmic concentration of drug. IC80 concentrations will be used for subsequent functional assays (cell proliferation, sphere formation), as determined by the following formula: ICF=100−F/F^1/H×IC50 where F = fraction of maximal response and H = hill slope.

neural stem cells = test: Dose-response assay, PrestoBlue, normal brain cell control; format: cell-based; conditions: Homo sapiens, 72-h treatment, N/A, not applicable
Source text: BM cell lines from primary lung (BT478, BT530), breast (BT923, BT930) and melanoma (BT673, BT917) cancers are derived from primary patient samples with written consent from the patients and approved by the Hamilton Health Sciences McMaster Health Sciences Research Ethics Board (REB #07366), in compliance with Canada’s Tri-Council Policy Statement on the Ethical Conduct for Research Involving Humans and International Ethical guidelines for Biomedical Research Involving Human Subjects. MDA-MB-231 was purchasedfrom American Type Culture Collection and used to generate a brain metastasis derivate following injection into the mammary fat pad and isolation from the brain at human endpoint. Cell lines are maintained in NeuroCult Complete (NCC) media consisting of NeuroCult NS-A Basal Medium (Stemcell technology #05750) and supplemented with 50 mL of NeuroCult Supplement, 20 ng/mL epidermal growth factor (EGF), 10 ng/mL fibroblast growth factor (FGF), 2 μg/mL heparin and 1% penicillin-streptomycin. Human fetal neural stem cells (hNSCs) are derived in-house using a previously described protocol.[62] Normal human astrocytes are purchased from American Type Culture Collection. All cell lines were maintained at 37°C with a humidified atmosphere of 5% CO2.
as §1, with “The” for “Dose-response assays were conducted using the same protocol apart from drugs being plated using 2-fold serial dilutions (20 μM - 39 nM) as previously described.[66] The”

MDR1 = test: Bi-directional permeability via MDR1-MDCKII cells; format: in vitro ADME; conditions: dog, MDCK-MDR1, pH 7.4; 2 μM (digoxin 10 μM), 2.5 h
Protocol: (§2) MDR1-MDCKII permeability assays were performed by Wuxi AppTec Co. Briefly, MDR1-MDCK1 cells were seeded onto polycarbonate membranes in 96-well insert system plates and allowed to develop into monolayers. […] The plate was incubated for 2.5 h (37°C, 5% CO2) and the media was sampled on either side and the compound present was quantified by LC-MS/MS and the concentrations were used to calculate the efflux ratio. Digoxin (10 μM), nadolol (2 μM), and metoprolol (2 μM) were used as controls.

MDR1-MDCKII cells = test: Bi-directional permeability via MDR1-MDCKII cells; format: in vitro ADME
Protocol: as §2

[2] = Brain homogenate binding, equilibrium dialysis; format: in vitro ADME, mouse; conditions: CD-1, mouse, pooled brain homogenate, pH 7.4, 37°C
Protocol: The samples were applied to a dialysis well plate and sealed with dialysis membrane. Dialysis buffer (100 mM sodium phosphate pH 7.4, 150 mM NaCl) was applied to opposite side of the membrane (receiver well of the plate), and samples were incubated at 37°C with 5% CO2 for 4 h. Following completion of incubation period, samples were recovered from each side of the dialysis membrane and processed by protein precipitation, and analysis by LC-MS/MS for compound concentration. A corresponding set of samples was also prepared and stop solution (acetonitrile containing 200 ng/mL tolbutamide and 200 ng/mL labetalol) was immediately added, and samples were obtained from each side of the dialysis plate for mass spectrometric analysis.

Structure (SMILES)	IC50 (lung-BMIC line (BT478))	IC50 (neural stem cells)	Papp A→B at 2.5 h, 2 μM (MDR1)	Rank of Papp (MDR1-MDCKII cells)	also measured
CN1CCc2cccc3c2[C@H]1Cc1ccc(O)c(O)c1-3 [apomorphine]					viability of lung-BMICs (BT478) compared to vehicle control [1]: significantly inhibited BMIC viability
COc1c(C)c2c(c(O)c1C/C=C(\C)CCC(=O)OCCN1CCOCC1)C(=O)OC2 [MMF (1), Mycophenolate mofetil]	48 µM	31.2 µM			
CC(C)(C)NCC(O)COc1cccc2c1CC(O)C(O)C2 (stereo not drawn) [Nadolol]			0.198 ×10⁻⁶ cm/s	Low	
COc1c(C)c2c(c(O)c1C/C=C(\C)CCC(=O)N1CCN(C)CC1)C(=O)OC2 [Compound 4]		493 µM			
COCCc1ccc(OCC(O)CNC(C)C)cc1 (stereo not drawn) [Metoprolol]			29.5 ×10⁻⁶ cm/s	High	
COc1c(C)c2c(c(O)c1C/C=C(\C)CCC(=O)OCCN1CCN(C(=O)OC(C)(C)C)CC1)C(=O)OC2 [Compound 2]	17.1 µM	353 µM			
CC(C)NCC(O)COc1cccc2ccccc12 (stereo not drawn) [Propranolol]					fraction unbound at 4 h, 2 μM [2]: 0.023
COc1c(C)c2c(c(O)c1C/C=C(\C)CCC(=O)NCCN1CCCC1)C(=O)OC2 [Compound 6]	24.7 µM	70.8 µM			
COc1c(C)c2c(c(O)c1C/C=C(\C)CCC(=O)NCCCN1CCC1)C(=O)OC2 [Compound 5]		182 µM			
C[C@H]1O[C@@H](O[C@H]2[C@@H](O)C[C@H](O[C@H]3[C@@H](O)C[C@H](O[C@H]4CC[C@@]5(C)[C@H](CC[C@@H]6[C@@H]5C[C@@H](O)[C@]5(C)[C@@H](C7=CC(=O)OC7)CC[C@]65O)C4)O[C@@H]3C)O[C@@H]2C)C[C@H](O)[C@@H]1O [Digoxin]			0.556 ×10⁻⁶ cm/s	Low	Papp B→A at 2.5 h, 2 μM (MDR1): 11.8 ×10⁻⁶ cm/s; efflux ratio at 2.5 h, 2 μM (MDR1): 21.2
